This note sets out measurements from patent publication US9802939.

Like-named read-outs stand apart in the source and are kept apart here.

The conditions of the series: 12-membered ring.

For `COC(=O)Nc1ccc2c(c1)NC(=O)CCN(C(=O)OC(C)(C)C)C[C@H](NC(=O)OCc1ccccc1)c1nc-2cn1COCC[Si](C)(C)C`, the ring closure, isolated yield (from COC(=O)Nc1ccc(-c2cn(COCC[Si](C)(C)C)c([C@H](CN(CCC(=O)O)C(=O)OC(C)(C)C)NC(=O)OCc3ccccc3)n2)c(N)c1, amide bond, BOP/DIEA, DCM/DMF, 0.93 mM, 25.0 °C) stood at 87%. `CC(C)(C)OC(=O)N[C@H]1CC=CCCOc2ccccc2-c2cn(COCC[Si](C)(C)C)c1n2` gave a ring closure, isolated yield (from C=CCCOc1ccccc1-c1cn(COCC[Si](C)(C)C)c([C@H](CC=C)NC(=O)OC(C)(C)C)n1, rcm bond, Grubbs II (1 eq)/pTsOH, DCM, 1.02 mM, 40.0 °C) of 20%.
